Laboratory results taken from patent US12291516B2, “Substituted 1-amino-1H-imidazole-5-carboxamide as Bruton's tyrosine kinase inhibitors” (Henan Zhiwei Biomedicine Co., Ltd., priority 2019, dated 2025).

How the values were obtained:
[1] = molecular target: T1, BTK (Homo sapiens (Human), UniProt Q06187); assay: In house ELISA kinase inhibition assay, BTK; format: biochemical; settings: footnote b: from in house procedure (ELISA)
Protocol: (§1) BTK inhibition Assay and selectivity Assay The assay was conducted either a by a third party (Reaction Biology Corporation, PA, USA) or in house.
(§2) b) In House Procedure for BTK, BMX, EGFR and ITK:
(§3) Kinase inhibitory activities of compounds were evaluated using the Enzyme-linked immunosorbent assay (ELISA). The kinase enzyme of BTK, BMX, EGFR and ITK were purchased from Carna Bioscience (Kobe, Japan). A total of 10 ng/mL antiphosphotyrosine (PY713) antibody (abcam, Cambridge Science Park, UK) was precoated in 96-well ELISA plates. The kinase enzymes in each reaction well were set to BTK (101.25 ng/mL), BMX (90 ng/mL), EGFR (90 ng/mL) or ITK (120 ng/mL) and incubated with indicated drugs in 1× reaction buffer (50 mmol/L HEPES pH 7.4, 20 mmol/L MgCl2, 0.1 mmol/L MnCl2, 1 mmol/L DTT) containing 20 μmol/L (the final concentration of substrate in ITK reaction was 30 μmol/L) substrate (NH2-[…]-biotin) at 25° C. for 1 h. Then, a total of 3 μmol/L ATP was added and the reaction was continued for 2 h. The products of reaction were transferred into 96-well ELISA plates containing antibody and incubated at 25° C. for 30 min. After incubation, the wells were washed with PBS and then incubated with horseradish peroxidase (HRP)-conjugated streptavidin. The wells were visualized using 3,3′,5,5′-tetramethylbenzidine (TMB), and chromogenic reaction was ended with 2 mol/L H2SO4, the absorbance was read with a multimode plate reader (PerkinElmer, USA) at 450 nm. IC50 values and curve fits were obtained using Prism (GraphPad Software). (Table I-IV)

[2] = molecular target: T1, BTK; assay: BTK inhibition assay by Reaction Biology Corporation (33P-ATP, filter-binding); format: biochemical; settings: footnote a: from Reaction Biology Corporation
Protocol: as §1
a) Reagent and Procedure by Reaction Biology Corporation:
Base Reaction buffer; 20 mM Hepes (pH 7.5), 10 mM MgCl2, 1 mM EGTA, 0.02%. Brij35, 0.02 mg/ml BSA, 0.1 mM Na3VO4, 2 mM DTT, 1% DMSO. Required cofactors were added individually to each kinase reaction. Compound handling: testing compounds were dissolved in 100% DMSO to specific concentration. The serial dilution was conducted by Integra Viaflo Assist in DMSO.
The substrate was prepared in freshly prepared reaction buffer of above and required cofactors were added to the substrate solution. The kinase was delivered to the substrate solution and the mixture was gently mixed. Testing compounds in 100% DMSO was added to the kinase reaction mixture by Acoustic technology (Echo550; nanoliter range) and the new mixture was incubated for 20 min at room temperature. Then ^33P-ATP (Specific activity 10 μCi/μl) was added to the reaction mixture to initiate the reaction and the mixture was incubated for 2 hours at room temperature. The radioactivity was detected by filter-binding method and the kinase activity data was expressed as the percent of remaining kinase activity in test sample compared to vehicle (dimethyl sulfoxide) reaction. IC50 values and curve fits were obtained using Prism (GraphPad Software). The result is outlined in Table-I

[3] = molecular target: EGFR (Homo sapiens (Human), UniProt P00533); assay: In house ELISA kinase inhibition assay, EGFR; format: biochemical; settings: for IC50: in house ELISA; for Selectivity ratio: selectivity for BTK and EGFR
Sequence of EGFR (P00533 25-1210): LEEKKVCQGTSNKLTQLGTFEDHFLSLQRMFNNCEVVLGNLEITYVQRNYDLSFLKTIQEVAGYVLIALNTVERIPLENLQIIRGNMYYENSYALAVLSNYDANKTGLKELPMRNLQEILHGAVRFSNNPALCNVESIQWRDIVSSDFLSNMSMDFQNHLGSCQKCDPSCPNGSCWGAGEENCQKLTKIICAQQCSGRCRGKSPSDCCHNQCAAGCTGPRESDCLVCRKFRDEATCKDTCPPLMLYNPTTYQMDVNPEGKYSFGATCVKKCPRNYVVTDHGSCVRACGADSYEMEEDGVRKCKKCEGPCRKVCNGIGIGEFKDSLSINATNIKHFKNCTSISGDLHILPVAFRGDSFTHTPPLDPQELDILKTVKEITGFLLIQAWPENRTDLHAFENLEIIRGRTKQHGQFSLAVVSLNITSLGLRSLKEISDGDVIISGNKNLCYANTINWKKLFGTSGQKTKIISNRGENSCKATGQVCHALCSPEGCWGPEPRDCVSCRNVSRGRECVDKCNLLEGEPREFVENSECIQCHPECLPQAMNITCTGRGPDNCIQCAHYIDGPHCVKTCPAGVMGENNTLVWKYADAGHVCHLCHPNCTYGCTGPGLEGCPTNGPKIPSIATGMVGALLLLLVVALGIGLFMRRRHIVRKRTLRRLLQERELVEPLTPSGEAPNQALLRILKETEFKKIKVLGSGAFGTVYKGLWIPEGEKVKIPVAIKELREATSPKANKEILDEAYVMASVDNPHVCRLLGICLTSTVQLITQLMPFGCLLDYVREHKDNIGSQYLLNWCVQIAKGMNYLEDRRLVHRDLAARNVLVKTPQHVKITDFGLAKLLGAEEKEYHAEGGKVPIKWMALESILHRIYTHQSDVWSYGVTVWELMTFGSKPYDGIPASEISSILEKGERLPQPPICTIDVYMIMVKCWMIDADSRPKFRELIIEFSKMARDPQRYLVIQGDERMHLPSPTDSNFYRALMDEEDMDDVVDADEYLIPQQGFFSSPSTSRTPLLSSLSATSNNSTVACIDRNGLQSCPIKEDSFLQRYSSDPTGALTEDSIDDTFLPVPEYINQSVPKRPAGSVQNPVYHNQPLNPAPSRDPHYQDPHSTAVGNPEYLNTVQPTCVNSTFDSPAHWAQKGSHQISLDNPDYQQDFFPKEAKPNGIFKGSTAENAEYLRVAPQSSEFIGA
Protocol: as §1, §2, §3

[4] = molecular target: BMX (Homo sapiens (Human), UniProt P51813); assay: In house ELISA kinase inhibition assay, BMX; format: biochemical; settings: for IC50: in house ELISA; for Selectivity ratio: selectivity for BTK and BMX
Sequence of BMX (P51813 whole entry): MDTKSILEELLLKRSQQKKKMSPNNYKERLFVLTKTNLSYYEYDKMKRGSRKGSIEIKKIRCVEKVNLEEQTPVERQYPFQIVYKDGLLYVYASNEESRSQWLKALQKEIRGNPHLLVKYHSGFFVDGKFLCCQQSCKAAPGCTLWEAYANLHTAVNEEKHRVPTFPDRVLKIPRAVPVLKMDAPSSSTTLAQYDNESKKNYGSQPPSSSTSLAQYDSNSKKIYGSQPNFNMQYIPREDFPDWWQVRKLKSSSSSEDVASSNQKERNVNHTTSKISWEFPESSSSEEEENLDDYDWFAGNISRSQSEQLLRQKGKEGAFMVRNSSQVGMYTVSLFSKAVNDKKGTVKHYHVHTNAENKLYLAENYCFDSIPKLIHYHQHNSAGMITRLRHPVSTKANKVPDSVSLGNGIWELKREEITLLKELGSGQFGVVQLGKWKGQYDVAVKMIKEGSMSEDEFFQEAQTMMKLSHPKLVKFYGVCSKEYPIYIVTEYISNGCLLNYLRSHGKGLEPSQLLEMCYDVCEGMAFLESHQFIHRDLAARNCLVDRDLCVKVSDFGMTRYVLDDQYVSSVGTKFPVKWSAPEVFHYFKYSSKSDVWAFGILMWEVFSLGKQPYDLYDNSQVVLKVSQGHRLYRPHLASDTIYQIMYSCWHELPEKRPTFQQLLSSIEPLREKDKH
Protocol: as §1, §2, §3

[5] = molecular target: ITK (Homo sapiens (Human), UniProt Q08881); assay: In house ELISA kinase inhibition assay, ITK; format: biochemical; settings: for IC50: in house ELISA; for Selectivity ratio: selectivity for BTK and ITK
Sequence of ITK (Q08881 whole entry): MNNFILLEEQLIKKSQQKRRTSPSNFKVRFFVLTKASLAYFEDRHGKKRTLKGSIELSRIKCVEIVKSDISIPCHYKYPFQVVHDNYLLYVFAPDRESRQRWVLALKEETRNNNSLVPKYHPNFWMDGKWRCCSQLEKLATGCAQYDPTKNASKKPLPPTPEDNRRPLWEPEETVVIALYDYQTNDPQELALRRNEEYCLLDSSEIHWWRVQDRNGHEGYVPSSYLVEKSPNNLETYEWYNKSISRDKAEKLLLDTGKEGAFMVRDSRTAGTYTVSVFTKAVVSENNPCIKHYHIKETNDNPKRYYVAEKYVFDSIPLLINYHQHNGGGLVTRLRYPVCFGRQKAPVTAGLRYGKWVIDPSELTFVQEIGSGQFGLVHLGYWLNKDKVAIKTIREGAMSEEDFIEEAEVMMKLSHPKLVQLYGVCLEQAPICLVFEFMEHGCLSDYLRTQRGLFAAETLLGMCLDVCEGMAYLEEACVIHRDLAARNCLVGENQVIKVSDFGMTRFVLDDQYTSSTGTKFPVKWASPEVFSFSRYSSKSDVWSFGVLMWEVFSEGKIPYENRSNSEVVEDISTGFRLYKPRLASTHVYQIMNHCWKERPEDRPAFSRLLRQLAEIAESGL
Protocol: as §1, §2, §3

[6] = test system: TMD-8; assay: In-vitro antitumor activity assay (CellTiter-Glo cell antiproliferative activity); format: cell-based; settings: Homo sapiens, TMD8, TMD-8 cells, 72 h
Protocol: In-Vitro Antitumor Activity Assay
Method: Reagent and procedure by Hefei PreceDo pharmaceuticals Co. Ltd.
Cell antiproliferative activity was evaluated by the CellTiter-Glo (Promega, USA) assay. Make 1000× compounds solution in DMSO, add 1 μl 1000× compounds to […] growth medium to make 20× compounds. Dilute cell suspensions in growth medium to desired density and 95 μl were taken to 96-well plate. Add 5 μl 20× compounds into 96-well plate according to the plate map. Final DMSO concentration in each well was 0.1%. Then the cell was incubated at 37° C., 5% CO2 for 72 h. Equilibrate the assay plate to room temperature before measurement. Add 20 μl of CellTiter-Glo© Reagent into each well. Mix contents for 2 minutes on an orbital shaker to induce cell lysis. Incubate at room temperature for 10 minutes to stabilize luminescent signal. Record luminescence using EnVision Multilabel Reader (PerkinElmer). Cell viability (CV %) was calculated relative to vehicle (DMSO) treated control wells using following formula: Cell viability (%)=(RLU compound−RLU blank)/(RLU control−RLU blank)*100%. The IC50 values were calculated using GraphPad Prism 6.0 software, fitting to a 4-parameter equation to generate concentration response curves. All assays were conducted with three parallel samples and three repetitions.

T1 sequence (Q06187 whole entry): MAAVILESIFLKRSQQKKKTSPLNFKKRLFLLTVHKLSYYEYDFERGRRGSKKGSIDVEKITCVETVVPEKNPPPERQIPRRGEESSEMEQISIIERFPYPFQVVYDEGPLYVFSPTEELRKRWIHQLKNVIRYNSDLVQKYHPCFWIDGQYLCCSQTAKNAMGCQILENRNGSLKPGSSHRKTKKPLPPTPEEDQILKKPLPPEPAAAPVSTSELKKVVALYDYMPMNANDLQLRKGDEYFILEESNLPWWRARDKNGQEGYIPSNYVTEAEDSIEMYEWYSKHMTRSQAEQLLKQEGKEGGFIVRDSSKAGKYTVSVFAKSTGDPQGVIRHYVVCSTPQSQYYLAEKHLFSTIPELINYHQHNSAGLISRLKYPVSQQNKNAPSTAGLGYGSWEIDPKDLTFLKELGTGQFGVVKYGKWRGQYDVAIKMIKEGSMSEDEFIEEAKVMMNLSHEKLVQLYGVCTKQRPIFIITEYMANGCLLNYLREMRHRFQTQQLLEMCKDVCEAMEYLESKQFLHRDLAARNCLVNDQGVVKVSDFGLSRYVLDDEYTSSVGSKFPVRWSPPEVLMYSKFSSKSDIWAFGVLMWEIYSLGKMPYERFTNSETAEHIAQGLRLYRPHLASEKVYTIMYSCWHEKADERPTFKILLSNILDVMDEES

`C=CC(=O)N1CCCC[C@H]1c1nc(-c2ccc(C(=O)Nc3ccccn3)cc2)c(C(N)=O)n1N` [Example 46, (S)-2-(1-acryloylpiperidin-2-yl)-1-amino-4-(4-(pyridin-2-ylcarbamoyl)phenyl)-1H-imidazole-5-carboxamide] was tested, and the IC50 [1] was 13.1 nM and the IC50 [2] was 44.6 nM.
With `CC#CC(=O)N1CCCC[C@H]1c1nc(-c2ccc(C(=O)Nc3cc(Cl)ccn3)cc2)c(C(N)=O)n1N` [Example 98, (S)-1-amino-2-(1-(but-2-ynoyl)piperidin-2-yl)-4-(4-((4-chloropyridin-2-yl)carbamoyl)phenyl)-1H-imidazole-5-carboxamide] the IC50 [3] was 3980 nM, the Selectivity ratio [3] was 206 and the IC50 [4] was 1080 nM. The Selectivity ratio [4] was 55.8, the IC50 [1] was 19.4 nM and the IC50 [5] was 16500 nM. The Selectivity ratio [5] was 850 and the IC50 [6] was 37 nM.
For `CC#CC(=O)N1CCCC[C@H]1c1nc(-c2ccc(C(=O)Nc3cc(I)ccn3)cc2)c(C(N)=O)n1N` [Example 90, (S)-1-amino-2-(1-(but-2-ynoyl)piperidin-2-yl)-4-(4-((4-iodopyridin-2-yl)carbamoyl)phenyl)-1H-imidazole-5-carboxamide], the IC50 [3] was 4680 nM, the Selectivity ratio [3] was 439 and the IC50 [4] was 226 nM. The Selectivity ratio [4] was 21.2, the IC50 [5] was 532 nM and the Selectivity ratio [5] was 49.9. For the same molecule, the IC50 [2] was 10.7 nM and the IC50 [6] was 35.1 nM.
In the case of `C=CC(=O)N1CCCC[C@H]1c1nc(-c2ccc(C(=O)Nc3cc(C(C)C)ccn3)cc2)c(C(N)=O)n1N` [Example 71, (S)-2-(1-acryloylpiperidin-2-yl)-1-amino-4-(4-((4-isopropylpyridin-2-yl)carbamoyl)phenyl)-1H-imidazole-5-carboxamide], the IC50 [1] is reported as 22.6 nM and the IC50 [2] is reported as 55.1 nM.
`C=CC(=O)N1CCCC[C@H]1c1nc(-c2ccc(C(=O)Nc3cc(Cl)ccn3)cc2)c(C(N)=O)n1N` [Example 72, (S)-2-(1-acryloylpiperidin-2-yl)-1-amino-4-(4-((4-chloropyridin-2-yl)carbamoyl)phenyl)-1H-imidazole-5-carboxamide] showed an IC50 [1] of 11.2 nM, an IC50 [2] of 10.1 nM and an IC50 [6] of 19 nM.
Work on `CC#CC(=O)N1CCC[C@H]1c1nc(-c2ccc(C(=O)Nc3cc(C)ccn3)cc2)c(C(N)=O)n1N` [Example 18, (S)-1-amino-2-(1-(but-2-ynoyl)pyrrolidin-2-yl)-4-(4-((4-methylpyridin-2-yl)carbamoyl)phenyl)-1H-imidazole-5-carboxamide] yielded an IC50 [1] of 3080 nM and an IC50 [2] of 7200 nM.
In the case of `C#CC(=O)N1CCC[C@H]1c1nc(-c2ccc(C(=O)Nc3cc(C)ccn3)cc2)c(C(N)=O)n1N` [Example 17, (S)-1-amino-4-(4-((4-methylpyridin-2-yl)carbamoyl)phenyl)-2-(1-propioloylpyrrolidin-2-yl)-1H-imidazole-5-carboxamide], the IC50 [1] is reported as 30.3 nM and the IC50 [2] is reported as 24.4 nM.
Work on `C=CC(=O)N1CCC[C@H]1c1nc(-c2ccc(C(=O)Nc3ccccn3)cc2)c(C(N)=O)n1N` [Example 1, (S)-2-(1-acryloylpyrrolidin-2-yl)-1-amino-4-(4-(pyridin-2-yl-carbamoyl)phenyl)-1H-imidazole-5-carboxamide] yielded an IC50 [1] of 176 nM and an IC50 [2] of 131 nM.
`C=CC(=O)N1CCC[C@@H](c2nc(-c3ccc(C(=O)Nc4cc(CC)ccn4)cc3)c(C(N)=O)n2N)C1` [Example 93, (R)-2-(1-acryloylpiperidin-3-yl)-1-amino-4-(4-((4-ethylpyridin-2-yl)carbamoyl)phenyl)-1H-imidazole-5-carboxamide] gave an IC50 [2] of 14.6 nM.
`CC#CC(=O)N1CCCC[C@H]1c1nc(-c2ccc(C(=O)Nc3cc(-c4ccc(F)cc4)ccn3)cc2)c(C(N)=O)n1N` [Example 92, (S)-1-amino-2-(1-(but-2-ynoyl)piperidin-2-yl)-4-(4-((4-(4-fluorophenyl)pyridin-2-yl)carbamoyl)phenyl)-1H-imidazole-5-carboxamide] gave an IC50 [3] of 1090 nM, a Selectivity ratio [3] of 74 and an IC50 [4] of 154 nM. It also gave a Selectivity ratio [4] of 10.5, an IC50 [5] of 33100 nM and a Selectivity ratio [5] of 2255. The IC50 [2] was 14.7 nM and the IC50 [6] was 90.8 nM.
`C=CC(=O)N1CCCC[C@H]1c1nc(-c2ccc(C(=O)Nc3cc(CC)ccn3)cc2)c(C(N)=O)n1NC` [Example 81, (S)-2-(1-acryloylpiperidin-2-yl)-4-(4-((4-ethylpyridin-2-yl)carbamoyl)phenyl)-1-(methylamino)-1H-imidazole-5-carboxamide] was tested, and the IC50 [2] was 11 nM.
`C#CC(=O)N1CCC[C@H]1c1nc(-c2ccc(C(=O)Nc3ccccn3)cc2)c(C(N)=O)n1N` [Example 7, (S)-1-amino-2-(1-propioloylpyrrolidin-2-yl)-4-(4-(pyridin-2-ylcarbamoyl)phenyl)-1H-imidazole-5-carboxamide] showed an IC50 [2] of 85 nM.
`C=CC(=O)N1CCCC[C@H]1c1nc(-c2ccc(C(=O)Nc3cc(I)ccn3)cc2)c(C(N)=O)n1N` [Example 89, (S)-2-(1-acryloylpiperidin-2-yl)-1-amino-4-(4-((4-iodopyridin-2-yl)carbamoyl)phenyl)-1H-imidazole-5-carboxamide] showed an IC50 [2] of 6.12 nM.
`CC#CC(=O)N1CCCC[C@H]1c1nc(-c2ccc(C(=O)Nc3cc(Br)ccn3)cc2)c(C(N)=O)n1N` [Example 88, (S)-1-amino-4-(4-((4-bromopyridin-2-yl)carbamoyl)phenyl)-2-(1-(but-2-ynoyl)piperidin-2-yl)-1H-imidazole-5-carboxamide] was tested, and the IC50 [2] was 22.6 nM.
`C=CC(=O)N1CCCC[C@H]1c1nc(-c2ccc(C(=O)Nc3cc(Br)ccn3)cc2)c(C(N)=O)n1N` [Example 87, (S)-2-(1-acryloylpiperidin-2-yl)-1-amino-4-(4-((4-bromopyridin-2-yl)carbamoyl)phenyl)-1H-imidazole-5-carboxamide] showed an IC50 [2] of 4.38 nM.
With `C#CC(=O)N1CCC[C@H]1c1nc(-c2ccc(C(=O)Nc3ccc(C)cn3)cc2)c(C(N)=O)n1N` [Example 26, (S)-1-amino-4-(4-((5-methylpyridin-2-yl)carbamoyl)phenyl)-2-(1-propioloylpyrrolidin-2-yl)-1H-imidazole-5-carboxamide] the IC50 [1] was 18.4 nM and the IC50 [2] was 12.5 nM.
`C=CC(=O)N1CCCC[C@H]1c1nc(-c2ccc(C(=O)Nc3cc(CC)ccn3)cc2)c(C(N)=O)n1N` [Example 73, (S)-2-(1-acryloylpiperidin-2-yl)-1-amino-4-(4-((4-ethylpyridin-2-yl)carbamoyl)phenyl)-1H-imidazole-5-carboxamide] gave an IC50 [2] of 9.68 nM.
`C#CC(=O)N1CCC[C@H]1c1nc(-c2ccc(C(=O)Nc3cc(OC)ccn3)cc2)c(C(N)=O)n1N` [Example 33, (S)-1-amino-4-(4-((4-methoxypyridin-2-yl)carbamoyl)phenyl)-2-(1-propioloylpyrrolidin-2-yl)-1H-imidazole-5-carboxamide] was tested, and the IC50 [2] was 13.5 nM.
For `CCc1ccnc(NC(=O)c2ccc(-c3nc([C@@H]4CCCN4C(=O)C=C(C)C)n(N)c3C(N)=O)cc2)c1` [Example 37, (S)-1-amino-4-(4-((4-ethylpyridin-2-yl)carbamoyl)phenyl)-2-(1-(3-methylbut-2-enoyl)pyrrolidin-2-yl)-1H-imidazole-5-carboxamide], the IC50 [2] was 2210 nM.
